Data published in patent US11014898B1, “Benzothiazepine compounds and their use as bile acid modulators” (Albireo AB, priority 2020, dated 2021).

Target: T1, Human IBAT (Homo sapiens, UniProt Q12908)
T1 construct: expressed in transfected cells; cells kept under Puromycin selection
T1 sequence (Q12908 1-348): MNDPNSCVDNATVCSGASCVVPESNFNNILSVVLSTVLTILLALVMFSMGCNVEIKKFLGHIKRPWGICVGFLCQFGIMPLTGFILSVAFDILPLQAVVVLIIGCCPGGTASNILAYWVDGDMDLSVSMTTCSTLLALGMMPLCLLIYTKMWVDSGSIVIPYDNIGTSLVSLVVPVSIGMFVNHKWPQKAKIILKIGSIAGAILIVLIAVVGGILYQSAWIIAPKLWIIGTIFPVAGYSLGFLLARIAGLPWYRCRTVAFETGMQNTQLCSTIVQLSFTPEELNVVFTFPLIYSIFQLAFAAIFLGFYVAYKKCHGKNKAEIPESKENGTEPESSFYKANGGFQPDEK
Test: IBAT (h) assay: 3H-taurocholic acid uptake in human IBAT-overexpressing cells
Assay type: cell-based
Settings: 0.25 μM 3H-taurocholic acid and 5 μM cold taurocholic acid, 20 minutes, read-out: hIBAT IC50
Procedure, shortened: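 IBAT-overexpressing cells, grown 48 h, were exposed 20 min at 37° C to inhibitor (10-point 3-fold series, top 10 μM, 0.2% DMSO) with 0.25 μM 3H-taurocholic acid plus 5 μM cold taurocholate in FBS-free medium. After ice stop and washes with chilled 1 mM taurocholate in HEPES-HBSS pH 7.4, cell-associated radioactivity was scintillation-counted.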

CCCCC1(CCCC)CN(c2ccc(Br)cc2)c2cc(SC)c(OCC(=O)O)cc2S(=O)(=O)C1 [Example 3, 2-((5-(4-bromophenyl)-3,3-dibutyl-7-(methylthio)-1,1-dioxido-2,3,4,5-tetrahydro-1,5-benzothiazepin-8-yl)oxy)acetic Acid]
IC50: 26 nM

CCCCC1(CCCC)CN(c2ccc(O)cc2)c2cc(SC)c(OCC(=O)O)cc2S(=O)(=O)C1 [Example 4, 2-((3,3-dibutyl-5-(4-hydroxyphenyl)-7-(methylthio)-1,1-dioxido-2,3,4,5-tetrahydro-1,5-benzothiazepin-8-yl)oxy)acetic Acid]
IC50: 15 nM
